A word on the IC50: it is the concentration that inhibits the measured activity by half.

This assay has as its target T1, MRE11 (Saccharomyces cerevisiae, UniProt P32829).
T1 construct: made in house; host or cells: S. cerevisiae protease-deficient strain BJ5464
T1 sequence (P32829 1-692): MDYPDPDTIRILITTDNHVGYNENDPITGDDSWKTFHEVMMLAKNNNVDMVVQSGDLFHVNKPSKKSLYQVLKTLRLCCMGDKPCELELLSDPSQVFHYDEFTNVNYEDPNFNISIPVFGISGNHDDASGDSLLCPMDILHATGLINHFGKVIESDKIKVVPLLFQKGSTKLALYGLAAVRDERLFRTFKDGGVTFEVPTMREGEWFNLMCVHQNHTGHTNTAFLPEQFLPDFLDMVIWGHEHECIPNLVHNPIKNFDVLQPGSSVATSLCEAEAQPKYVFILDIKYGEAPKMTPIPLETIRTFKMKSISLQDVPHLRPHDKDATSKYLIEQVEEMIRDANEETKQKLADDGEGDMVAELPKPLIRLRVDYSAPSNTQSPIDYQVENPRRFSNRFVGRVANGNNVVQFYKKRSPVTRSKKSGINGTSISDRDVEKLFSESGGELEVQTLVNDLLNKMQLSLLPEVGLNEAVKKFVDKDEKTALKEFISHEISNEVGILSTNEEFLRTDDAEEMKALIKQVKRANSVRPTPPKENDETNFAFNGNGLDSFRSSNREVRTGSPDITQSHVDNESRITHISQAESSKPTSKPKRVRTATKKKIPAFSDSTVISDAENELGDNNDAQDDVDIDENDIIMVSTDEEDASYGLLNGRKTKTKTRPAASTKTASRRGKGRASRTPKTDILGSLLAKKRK
In words: Nuclease inhibition assay, MRE11 (5′ flap fluorescent DNA substrate, gel readout). The assay is classed as biochemical, yeast. The settings on record: 5 nM enzyme, 5 nM 5′ flap substrate, 15 min at 30° C. The source says:
In vitro assays were used for the determination of compound's IC50 values for inhibition of individual nucleases, i.e., MUS81/EME1, FEN1, EXO1, and MRE11. To generate IC50 values, concentration of compound was plotted against relative nuclease activity (in %). The dose-response curves were generated from inhibition data, from 5 point serial dilutions of inhibitory compounds, each in triplicate and fitted to a standard sigmoid curve. IC50 values were derived by standard nonlinear regression analysis.
All tested compounds were diluted in 100% DMSO (dimethylsulfoxide) to prepare working stocks with different concentrations. To keep the DMSO concentration constant in every reaction, always 0.5 μl of the compound stock was added to the reaction buffer. The reaction buffer differs depending on the enzyme tested. Also concentration of the compounds in the reaction depends on the particular enzyme, since the inhibitory effect of the compounds vary between the enzymes. Nevertheless, always doubling dilutions in the range 200-0.8 μM was used. The compound was added as the first component in the reaction buffer, followed by the enzyme addition. […]
For this experiment we prepared short fluorescently labeled oligonucleotide-based DNA substrates with specific structures reflecting the biochemical activities of tested individual nucleases (Table 1). […] For visualization, each substrate was labeled by fluorescent dye (fluorescein), which can be detected in the gel using appropriate imaging system (FLA-9000, Fuji) with filters for particular wavelengths (excitation: 485 nm, emission: 535 nm).
Nuclease assays were performed in reaction buffer specific for particular enzyme: MUS81/EME1 (50 mM Tris pH=7.5, 5 mM MgCl2, 1 mM DTT a 100 μg/ml BSA), MRE11 (30 mM Bis-Tris pH=7.0, 50 μg/ml BSA, 1 mM DTT a 250 μM MnCl2), EXO1 and FEN1 (50 mM Tris pH=7.5, 1 mM MgCl2, 1 mM DTT a 100 μg/ml BSA). […] Fluorescently labeled DNA was detected by FLA-9000 scanner (Fuji) and the result was evaluated using Multi-Gauge V3.2 software (Fuji). […]
The compound `Nc1c(-c2nc3ccccc3[nH]2)nnc2cc(-c3ccccc3)nn12` [Preparative Example 5C] yielded an IC50 of over 50 µM. For `CCc1nn2c(N)c(-c3nc4ccccc4[nH]3)nnc2c1-c1ccc(F)cc1` [Preparative Example 5A] the value was over 50 µM. Then `Nc1c(-c2nc3ccccc3[nH]2)nnc2cc(-c3cccc4ccccc34)nn12` [Preparative Example 5K], with under 50 µM.

These data come from patent US9969741B2, “Pyrazolotriazines as inhibitors of nucleases” (MASARYKOVA UNIVERZITA, priority 2014, dated 2018).
